{"source": "ChEMBL document CHEMBL1201862", "about": "“PubChem BioAssay data set” (2004)", "key": {"[1]": {"molecular_target": "Beta-2 adrenergic receptor (Homo sapiens, UniProt P07550)", "sequence (P07550 whole entry)": "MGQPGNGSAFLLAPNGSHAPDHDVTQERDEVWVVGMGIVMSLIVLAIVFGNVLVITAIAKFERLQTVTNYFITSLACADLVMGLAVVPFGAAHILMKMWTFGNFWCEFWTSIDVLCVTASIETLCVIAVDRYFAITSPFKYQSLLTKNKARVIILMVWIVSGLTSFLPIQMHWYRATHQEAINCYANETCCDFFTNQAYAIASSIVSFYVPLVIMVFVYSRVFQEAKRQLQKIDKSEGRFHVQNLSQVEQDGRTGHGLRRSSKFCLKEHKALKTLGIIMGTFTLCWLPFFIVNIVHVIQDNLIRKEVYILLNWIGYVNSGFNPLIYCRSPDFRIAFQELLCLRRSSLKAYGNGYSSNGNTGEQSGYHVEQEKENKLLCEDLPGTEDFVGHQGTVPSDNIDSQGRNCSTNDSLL", "assay": "ADRB2 activation measured by internalization – cell-based, FAP fluorogen, flow cytometry, cherry pick 1, dose response (AID 588763)", "assay_type": "functional"}, "[2]": {"molecular_target": "Peroxisome proliferator-activated receptor gamma/Nuclear receptor coactivator 3 (Homo sapiens, UniProt P37231)", "assay": "TR-FRET dose response biochemical High Throughput Screening assay for agonists of the steroid receptor coactivator 3 (SRC-3) recruitment by the peroxisome proliferator-activated receptor gamma (PPAR gamma): non-selective agonists. [Related pubchem assays: 1301 (Confirmation screen.), 1048 (Primary screen.)]", "assay_type": "functional"}, "[3]": {"molecular_target": "Peroxisome proliferator-activated receptor gamma/Nuclear receptor coactivator 2 (Homo sapiens, UniProt P37231)", "sequence (P37231 whole entry)": "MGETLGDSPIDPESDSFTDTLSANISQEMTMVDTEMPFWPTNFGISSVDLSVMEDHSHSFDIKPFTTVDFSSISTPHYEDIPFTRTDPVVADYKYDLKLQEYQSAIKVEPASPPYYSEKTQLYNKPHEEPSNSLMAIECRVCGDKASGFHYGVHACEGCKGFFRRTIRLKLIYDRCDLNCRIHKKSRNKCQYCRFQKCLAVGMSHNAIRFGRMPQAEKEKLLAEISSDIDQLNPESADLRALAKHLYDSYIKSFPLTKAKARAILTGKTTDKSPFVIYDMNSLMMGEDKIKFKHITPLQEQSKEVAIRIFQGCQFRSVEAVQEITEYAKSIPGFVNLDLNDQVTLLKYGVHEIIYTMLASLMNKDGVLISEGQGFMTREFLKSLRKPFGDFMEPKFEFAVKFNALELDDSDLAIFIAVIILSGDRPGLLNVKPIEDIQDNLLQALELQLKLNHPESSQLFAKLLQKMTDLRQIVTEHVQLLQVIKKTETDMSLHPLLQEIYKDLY", "sequence (Q15596 whole entry, further chain)": "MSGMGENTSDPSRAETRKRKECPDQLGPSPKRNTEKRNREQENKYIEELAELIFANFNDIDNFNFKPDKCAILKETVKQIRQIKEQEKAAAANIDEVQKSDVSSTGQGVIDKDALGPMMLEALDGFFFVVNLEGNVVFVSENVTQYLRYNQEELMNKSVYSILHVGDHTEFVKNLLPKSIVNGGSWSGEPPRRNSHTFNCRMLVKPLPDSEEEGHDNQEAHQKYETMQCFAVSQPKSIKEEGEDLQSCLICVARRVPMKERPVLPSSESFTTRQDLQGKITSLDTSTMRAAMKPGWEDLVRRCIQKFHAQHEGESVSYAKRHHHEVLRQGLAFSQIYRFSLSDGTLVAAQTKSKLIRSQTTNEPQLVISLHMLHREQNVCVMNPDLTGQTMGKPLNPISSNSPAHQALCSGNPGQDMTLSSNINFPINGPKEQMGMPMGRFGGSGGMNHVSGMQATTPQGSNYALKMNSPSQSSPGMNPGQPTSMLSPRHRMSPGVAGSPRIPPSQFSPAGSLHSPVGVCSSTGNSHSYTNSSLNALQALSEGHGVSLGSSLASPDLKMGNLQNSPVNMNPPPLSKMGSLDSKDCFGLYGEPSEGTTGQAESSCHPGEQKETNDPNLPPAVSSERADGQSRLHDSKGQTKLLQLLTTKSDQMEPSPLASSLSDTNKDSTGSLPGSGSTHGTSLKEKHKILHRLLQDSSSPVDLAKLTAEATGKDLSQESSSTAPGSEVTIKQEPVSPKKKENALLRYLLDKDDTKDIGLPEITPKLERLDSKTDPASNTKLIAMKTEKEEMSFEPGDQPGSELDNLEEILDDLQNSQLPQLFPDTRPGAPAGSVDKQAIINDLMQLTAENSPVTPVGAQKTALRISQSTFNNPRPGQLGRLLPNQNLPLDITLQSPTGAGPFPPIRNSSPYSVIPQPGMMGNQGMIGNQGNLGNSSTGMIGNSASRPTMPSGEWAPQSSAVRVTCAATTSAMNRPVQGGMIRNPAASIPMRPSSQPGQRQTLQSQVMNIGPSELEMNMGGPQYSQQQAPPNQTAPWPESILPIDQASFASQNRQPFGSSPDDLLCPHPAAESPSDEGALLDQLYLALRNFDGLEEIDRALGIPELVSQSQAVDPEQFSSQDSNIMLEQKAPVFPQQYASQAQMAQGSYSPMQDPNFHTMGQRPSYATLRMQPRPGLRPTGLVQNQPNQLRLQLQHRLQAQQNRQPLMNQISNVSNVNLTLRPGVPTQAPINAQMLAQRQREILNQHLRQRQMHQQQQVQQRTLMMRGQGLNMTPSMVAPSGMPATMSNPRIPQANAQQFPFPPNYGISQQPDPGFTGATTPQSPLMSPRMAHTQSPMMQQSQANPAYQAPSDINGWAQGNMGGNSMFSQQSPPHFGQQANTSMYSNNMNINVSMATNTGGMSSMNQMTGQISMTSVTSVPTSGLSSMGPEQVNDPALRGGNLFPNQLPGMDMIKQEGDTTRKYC", "assay": "(§1) TR-FRET dose response biochemical High Throughput Screening assay for agonists of the steroid receptor coactivator 2 (SRC-2) recruitment by the peroxisome proliferator-activated receptor gamma (PPAR gamma): non-selective agonists. [Related pubchem assays: 1297, 1032 ]", "assay_type": "functional"}, "[4]": {"molecular_target": "Peroxisome proliferator-activated receptor gamma/Nuclear receptor coactivator 1 (Homo sapiens, UniProt P37231)", "assay": "as §1, with “1 (SRC-1)” for “2 (SRC-2)”, “assays (depositor defined):AID1300, AID1808, AID504735, AID631]” for “assays: 1297, 1032 ]”", "assay_type": "protein assay"}, "[5]": {"molecular_target": "T1, Phospholipase D1 (Homo sapiens, UniProt Q13393)", "T1 sequence (Q13393 whole entry)": "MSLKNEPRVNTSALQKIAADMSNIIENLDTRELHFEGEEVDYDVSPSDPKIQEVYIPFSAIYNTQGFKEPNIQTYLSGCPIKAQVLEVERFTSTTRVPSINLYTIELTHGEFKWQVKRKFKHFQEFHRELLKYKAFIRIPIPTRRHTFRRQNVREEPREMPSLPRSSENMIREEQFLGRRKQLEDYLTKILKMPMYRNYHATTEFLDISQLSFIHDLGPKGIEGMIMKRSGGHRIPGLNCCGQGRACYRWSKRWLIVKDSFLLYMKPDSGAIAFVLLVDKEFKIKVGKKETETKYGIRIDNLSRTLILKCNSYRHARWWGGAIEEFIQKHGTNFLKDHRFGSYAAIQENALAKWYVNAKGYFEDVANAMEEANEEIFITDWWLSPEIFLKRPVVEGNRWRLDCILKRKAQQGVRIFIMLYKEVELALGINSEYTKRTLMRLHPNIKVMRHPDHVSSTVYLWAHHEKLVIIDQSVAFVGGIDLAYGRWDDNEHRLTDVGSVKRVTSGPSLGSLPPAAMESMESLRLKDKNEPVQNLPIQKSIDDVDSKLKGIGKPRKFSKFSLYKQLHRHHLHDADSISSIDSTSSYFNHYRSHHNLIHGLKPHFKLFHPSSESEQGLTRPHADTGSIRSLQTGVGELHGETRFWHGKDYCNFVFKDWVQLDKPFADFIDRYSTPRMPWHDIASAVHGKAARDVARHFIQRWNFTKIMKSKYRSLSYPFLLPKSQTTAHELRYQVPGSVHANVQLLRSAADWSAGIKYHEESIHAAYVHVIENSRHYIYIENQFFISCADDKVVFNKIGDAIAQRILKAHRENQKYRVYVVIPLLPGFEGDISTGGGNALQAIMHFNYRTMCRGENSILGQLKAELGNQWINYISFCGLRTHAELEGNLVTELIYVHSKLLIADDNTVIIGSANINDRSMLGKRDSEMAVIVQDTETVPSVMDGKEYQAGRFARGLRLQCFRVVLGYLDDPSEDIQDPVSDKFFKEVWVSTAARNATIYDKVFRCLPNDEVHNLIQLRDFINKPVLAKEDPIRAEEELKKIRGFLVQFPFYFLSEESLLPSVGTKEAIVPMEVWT", "assay": "cellular phospholipase D1 inhibition IC50 – cell-based, dose response (AID 602151)", "assay_type": "functional"}, "[6]": {"molecular_target": "Phospholipase D2 (Homo sapiens, UniProt O14939)", "sequence (O14939 whole entry)": "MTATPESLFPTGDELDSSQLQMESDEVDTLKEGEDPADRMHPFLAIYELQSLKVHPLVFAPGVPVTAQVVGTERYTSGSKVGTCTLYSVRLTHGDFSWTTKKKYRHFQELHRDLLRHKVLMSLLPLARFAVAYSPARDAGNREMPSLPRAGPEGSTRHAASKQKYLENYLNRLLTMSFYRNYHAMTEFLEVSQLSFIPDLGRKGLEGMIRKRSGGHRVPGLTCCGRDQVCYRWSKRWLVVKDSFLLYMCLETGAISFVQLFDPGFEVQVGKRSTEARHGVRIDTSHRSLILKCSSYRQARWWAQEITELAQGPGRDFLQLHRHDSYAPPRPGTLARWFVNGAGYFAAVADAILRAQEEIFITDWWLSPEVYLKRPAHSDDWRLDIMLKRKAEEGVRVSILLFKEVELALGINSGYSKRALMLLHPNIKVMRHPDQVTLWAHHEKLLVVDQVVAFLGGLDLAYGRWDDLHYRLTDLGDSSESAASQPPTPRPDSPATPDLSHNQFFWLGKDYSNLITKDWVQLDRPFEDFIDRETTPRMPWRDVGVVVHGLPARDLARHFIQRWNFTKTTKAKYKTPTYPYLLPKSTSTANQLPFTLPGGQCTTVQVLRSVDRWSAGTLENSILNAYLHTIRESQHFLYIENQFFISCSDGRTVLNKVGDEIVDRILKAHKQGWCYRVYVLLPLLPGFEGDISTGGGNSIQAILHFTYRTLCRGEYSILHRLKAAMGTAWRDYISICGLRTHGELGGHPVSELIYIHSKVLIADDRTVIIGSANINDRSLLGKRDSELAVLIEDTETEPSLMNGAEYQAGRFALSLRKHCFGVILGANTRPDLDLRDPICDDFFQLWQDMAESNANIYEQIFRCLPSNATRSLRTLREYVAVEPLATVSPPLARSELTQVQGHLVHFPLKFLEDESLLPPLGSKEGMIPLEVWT", "assay": "cellular phospholipase D2 inhibition IC50 – cell-based, dose response (AID 602147)", "assay_type": "functional"}, "[7]": {"molecular_target": "T2, Heat shock factor protein 1 (Mus musculus, UniProt P38532)", "T2 sequence (P38532 whole entry)": "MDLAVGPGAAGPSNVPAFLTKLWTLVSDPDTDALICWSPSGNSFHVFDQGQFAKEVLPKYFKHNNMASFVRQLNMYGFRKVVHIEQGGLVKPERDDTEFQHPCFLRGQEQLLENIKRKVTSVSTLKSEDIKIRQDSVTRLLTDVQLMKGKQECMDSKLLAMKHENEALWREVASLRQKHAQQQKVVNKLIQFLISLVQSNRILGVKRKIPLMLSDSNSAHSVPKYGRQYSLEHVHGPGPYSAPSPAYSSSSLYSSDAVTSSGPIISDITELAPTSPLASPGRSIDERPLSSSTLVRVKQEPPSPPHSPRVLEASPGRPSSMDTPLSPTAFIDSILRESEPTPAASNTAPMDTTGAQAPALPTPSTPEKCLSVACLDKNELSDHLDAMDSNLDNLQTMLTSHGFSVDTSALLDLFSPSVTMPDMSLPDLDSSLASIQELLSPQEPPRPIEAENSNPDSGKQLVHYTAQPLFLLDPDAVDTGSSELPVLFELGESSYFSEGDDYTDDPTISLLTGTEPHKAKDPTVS", "assay": "decrease of HSF1-responsive luciferase luminescence – cell-based, NIH3T3, dose retest, confirmation (AID 2382)", "assay_type": "functional"}, "[8]": {"molecular_target": "T3, Short transient receptor potential channel 4 (Mus musculus, UniProt Q9QUQ5)", "T3 sequence (Q9QUQ5 whole entry)": "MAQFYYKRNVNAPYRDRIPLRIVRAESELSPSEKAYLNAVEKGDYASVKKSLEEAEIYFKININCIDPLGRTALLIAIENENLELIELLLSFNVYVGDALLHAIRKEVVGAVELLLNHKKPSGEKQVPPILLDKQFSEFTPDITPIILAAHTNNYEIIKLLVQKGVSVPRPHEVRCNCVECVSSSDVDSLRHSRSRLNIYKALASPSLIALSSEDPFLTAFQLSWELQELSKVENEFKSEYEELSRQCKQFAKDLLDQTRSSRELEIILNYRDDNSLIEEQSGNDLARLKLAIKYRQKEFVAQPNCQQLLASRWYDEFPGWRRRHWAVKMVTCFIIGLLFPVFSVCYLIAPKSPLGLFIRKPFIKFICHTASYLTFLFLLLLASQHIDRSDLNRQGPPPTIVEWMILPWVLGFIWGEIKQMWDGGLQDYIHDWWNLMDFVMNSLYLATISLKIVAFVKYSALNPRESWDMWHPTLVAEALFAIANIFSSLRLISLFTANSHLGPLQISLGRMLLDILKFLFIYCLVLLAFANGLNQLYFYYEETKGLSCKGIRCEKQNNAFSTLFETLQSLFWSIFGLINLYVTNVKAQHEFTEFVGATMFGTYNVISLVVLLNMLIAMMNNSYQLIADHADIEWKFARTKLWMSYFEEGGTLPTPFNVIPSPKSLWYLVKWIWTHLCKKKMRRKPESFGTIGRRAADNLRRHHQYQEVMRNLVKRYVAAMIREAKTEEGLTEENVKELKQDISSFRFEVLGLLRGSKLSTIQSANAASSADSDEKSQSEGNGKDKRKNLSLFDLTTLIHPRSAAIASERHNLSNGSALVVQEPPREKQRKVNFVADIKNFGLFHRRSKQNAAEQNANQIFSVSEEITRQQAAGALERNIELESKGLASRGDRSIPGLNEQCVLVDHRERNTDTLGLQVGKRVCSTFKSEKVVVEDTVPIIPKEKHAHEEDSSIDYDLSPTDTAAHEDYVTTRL", "assay": "calcium entry via TRPC4 opening agents – cell-based, HEK293 TRPC4/mu-opioid, Fluo-4 calcium, dose response (AID 434937)", "assay_type": "functional"}, "[9]": {"molecular_target": "T4, Leucine aminopeptidase (Plasmodium falciparum 3D7, UniProt Q8IL11)", "T4 sequence (Q8IL11 whole entry)": "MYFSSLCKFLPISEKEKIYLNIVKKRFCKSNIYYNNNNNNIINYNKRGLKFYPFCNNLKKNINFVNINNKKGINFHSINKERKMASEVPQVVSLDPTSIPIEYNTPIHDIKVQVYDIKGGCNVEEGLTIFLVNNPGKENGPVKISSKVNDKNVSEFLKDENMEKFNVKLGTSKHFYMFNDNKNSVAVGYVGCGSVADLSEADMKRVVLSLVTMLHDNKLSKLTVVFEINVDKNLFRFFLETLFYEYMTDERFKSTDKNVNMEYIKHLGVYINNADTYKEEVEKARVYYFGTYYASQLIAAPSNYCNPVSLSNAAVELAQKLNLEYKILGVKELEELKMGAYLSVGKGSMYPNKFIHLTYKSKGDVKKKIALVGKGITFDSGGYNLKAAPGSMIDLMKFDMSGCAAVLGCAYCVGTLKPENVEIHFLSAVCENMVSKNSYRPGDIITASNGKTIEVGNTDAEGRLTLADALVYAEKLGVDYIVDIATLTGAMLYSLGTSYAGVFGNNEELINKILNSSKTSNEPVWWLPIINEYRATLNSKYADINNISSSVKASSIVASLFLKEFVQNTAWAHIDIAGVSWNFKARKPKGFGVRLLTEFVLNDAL", "assay": "P. falciparum M17LAP inhibitors, primary screen, biochemical, fluorogenic H-Leu-NHMec substrate, 1536-well (AID 1619)", "assay_type": "functional"}, "[10]": {"assay": "off-target signal loss in HeLa-CEM21 co-culture – HeLa F-luc CTL cells, cherry-picked, counter-screen for HIV-1 Env fusion inhibitor project, dose response (AID 652040)", "assay_type": "functional, cell-based"}, "[11]": {"assay": "HIV-1 AD8 envelope cell-cell fusion blockers – cherry-pick, dose response (AID 652062)", "assay_type": "functional, cell-based"}, "[12]": {"assay": "blockers of HIV-1 envelope-mediated cell-cell fusion – cherry-pick, dose response (AID 652057)", "assay_type": "functional, cell-based"}, "[13]": {"assay": "blockers of HIV-1 ZM109 envelope-driven cell-cell fusion – HeLa effector, CEM target cells, luciferase, cherry-pick, dose response (AID 652058)", "assay_type": "functional, cell-based"}}, "note": "The source made the active and inactive calls.", "data": [{"smiles": "COc1ccc(C2/C=C\\CN(Cc3ccc(N(C)C)cc3)CC(=O)N2Cc2ccc(F)cc2)cc1", "note": "(stereo not drawn)", "values": [{"measurement": "EC50", "setting": "[1]", "value": "4.34 µM (active)"}]}, {"smiles": "CCn1c(=O)cc(SCC(=O)Nc2cccc(C)n2)c2ccccc21", "values": [{"measurement": "EC50", "setting": "[2]", "value": "> 79.4 µM (not active)"}, {"measurement": "EC50", "setting": "[3]", "value": "> 79.4 µM (not active)"}, {"measurement": "EC50", "setting": "[4]", "value": "> 79.4 µM (inactive)"}]}, {"smiles": "O=C(NCCN1CCC(n2c(=O)[nH]c3cc(I)ccc32)CC1)C1CC1c1ccccc1", "note": "(stereo not drawn)", "values": [{"measurement": "IC50", "setting": "[5]", "value": "0.009 µM (active)"}, {"measurement": "IC50", "setting": "[6]", "value": "0.345 µM (active)"}]}, {"smiles": "Cc1cccc(C(=O)NC(=S)NNC(=O)c2ccccc2Cl)c1", "values": [{"measurement": "EC50", "setting": "[7]", "value": "> 195 µM (not active)"}, {"measurement": "EC50", "setting": "[8]", "value": "1.68 µM (active)"}, {"measurement": "IC50", "setting": "[9]", "value": "58 µM (active)"}]}, {"smiles": "COCCn1c(=S)[nH]c2cc(C(=O)N3CCN(Cc4ccc5c(c4)OCO5)CC3)ccc2c1=O", "values": [{"measurement": "AC50", "setting": "[10]", "value": "60.2 µM (active)"}, {"measurement": "AC50", "setting": "[11]", "value": "44.6 µM (active)"}, {"measurement": "AC50", "setting": "[12]", "value": "29.3 µM (active)"}]}, {"smiles": "C[C@@H](CN1CCC(n2c(=O)[nH]c3ccccc32)CC1)NC(=O)c1cccnc1", "values": [{"measurement": "IC50", "setting": "[5]", "value": "0.085 µM (active)"}, {"measurement": "IC50", "setting": "[6]", "value": "14 µM (active)"}]}, {"smiles": "CCCCOc1cccc(C(=O)Nc2ccc(NC(=O)c3ccco3)cc2)c1", "values": [{"measurement": "EC50", "setting": "[1]", "value": "0.222 µM (active)"}]}, {"smiles": "COc1cc2c(c(OC)c1OC)[C@@]1(c3ccccc3)CCCC[C@H]1[C@@H]2NC(=O)C(F)(F)F", "values": [{"measurement": "AC50", "setting": "[10]", "value": "5.7 µM (active)"}, {"measurement": "AC50", "setting": "[13]", "value": "7.65 µM (active)"}, {"measurement": "AC50", "setting": "[12]", "value": "6.21 µM (active)"}]}]}
